Results: patent publication US20120232025A1, “SAFENER DRUG COMBINATIONS FOR USE WITH NMDA […]” (priority 2010, published 2012)
Like-named read-outs stand apart in the source and are kept apart here.

Tests used:
[1] = test system: neuropathic pain; conditions: cited from earlier work
[2] = test system: depressive symptoms; conditions: cited from earlier work
[3] = test system: cerebrocortical neurons; assay: vacuole formation / neurotoxic damage in rat brain after NMDA antagonist administration; conditions: for vacuole-forming ED100 dosage: intraperitoneal injection, aging female rats, vacuole response in 100% of animals; for potency relative to MK-801 (from ED100 numbers): vacuole formation / NMDA receptor blocker ranking, fraction of MK-801 potency
From the text: First, that dosage is based on intraperitoneal injection. […] This is a simple, quick, and convenient mode of injection, and it is widely used in research. If desired, intravenous injection in rats can be performed by using the tail vein, but that is slower, more tedious, more difficult, and more prone to experimental error.
This runs contrary to most types of drug tests on rats, in which females tend to be avoided, because of potentially uncontrolled variables created by reproductive hormones. Most female rats that have been used, in tests done to date, are retired breeders, with ages of about 7 months or more.
For convenience, to avoid having to use subscript fonts or notations, terms such as […] also can be written as ED-100, or simply as […].
Whenever a term such as ED100 is being used, it requires an understanding of any essential factors that should be known by any researchers who might try to perform similar tests. In this situation, researchers would need to know the route of administration (intraperitoneal injection), and the types of animals used to determine the ED100 level (i.e., aging female rats).

[4] = as an anesthetic; cited from earlier work
[5] = test system: neurotoxic side effects of MK-801 or phencyclidine; assay: safener protection against neurotoxic side effects (vacuole formation) of NMDA antagonists; type: in vivo, rat
[6] = test system: neuropathic pain; assay: animal models of neuropathic pain; type: in vivo
[7] = test system: neurotoxic side effects of MK-801 or phencyclidine; conditions: cited from earlier work
[8] = test system: psychotomimetic effects; conditions: cited from earlier work
[9] = test system: neuropathic pain; conditions: cited from earlier work; remark: listed apart in the source
[10] = test system: excitotoxic neurodegeneration; assay: standard animal models of excitotoxic neurodegeneration; type: in vivo; conditions: only at very high doses that cause severe functional and behavioral disturbances
From the text: However, it may well be that such concerns, by the Applicants, are not especially serious or acute, in view of the relatively low dosages of memantine that are actually being administered to Alzheimer patients. The Applicants have tested memantine, in animals, to measure and quantify its ability to protect against excitotoxic neurodegeneration, using several standard animal models that are used to test and measure excitotoxic neurodegeneration. […] Therefore, it is very unlikely that memantine is being administered, to Alzheimer patients, at dosages that are actually high enough to prevent excitotoxic neurodegeneration, since the dosages being used in human patients are not causing the types of observable functional disturbances that have been seen when anti-excitotoxic dosages are administered.

[11] = test system: Alzheimer's disease; conditions: cited from earlier work
[12] = test system: cerebrocortical neurons; conditions: rats, persistent administration of the NMDA antagonist; cited from earlier work

CNC1(c2ccccc2Cl)CCCCC1=O (racemic) [ketamine]
side effects ([1]; continuous subcutaneous infusion, one patient (Backonja et al 1994)): intolerable cognitive and memory side effects
side effects ([1]; single-dosage injections, six patients (Backonja et al 1994)): mild and well tolerated
side effects ([1]; subcutaneous injections over 7 days and nights (Eide et al 1995)): intolerable side effects
relief from depressive symptoms ([2]; intravenous infusion for 40 minutes, small group (Berman et al 2000)): transient but significant relief
relief from depressive symptoms ([2]; prolonged subanesthetic intravenous infusion up to 4 days, 2 patients (Correll et al 2005)): rapid and lasting relief
time to relief from depressive symptoms after infusion ([2]; single 40 minute intravenous infusion, treatment resistant depression (Zarate et al 2006b)): less than 2 hours
duration of remission of symptoms ([2]; single 40 minute intravenous infusion, significant number of patients (Zarate et al 2006b)): up to a week
potency relative to phencyclidine (from ED100 numbers) ([3]; fraction of phencyclidine potency): about 1/10
vacuole-forming ED100 dosage [3]: 40 mg/kg
potency relative to MK-801 (from ED100 numbers) [3]: about 1/100

CN[C@]1(c2ccccc2Cl)CCCCC1=O [S-ketamine]
anesthetic potency relative to R-ketamine [4]: about twice as potent

CN(C)CCC=C1c2ccccc2CCc2ccccc21 [amitriptyline]
safening activity against neurotoxic side effects of MK-801 ([5]; coadministered with MK-801, unpublished experiments): substantial safening activity
neuropathic pain-relieving activity ([6]; animal models, administered by itself): neuropathic pain-relieving activity
effect on neuropathic pain-relieving activity of memantine ([6]; coadministered with memantine): potentiated

Clc1cccc(Cl)c1N=C1NCCN1 [clonidine]
neurotoxic effects of NMDA antagonists in animals [7]: suppressed or prevented
psychotomimetic effects of NMDA antagonists in humans [8]: suppressed or prevented
effect on MK-801's neuropathic pain-relieving activity ([9]; administered together with MK-801): potentiates
neuropathic pain relieving activity ([9]; alone): neuropathic pain relieving activity

CN1CCN(C2=Nc3cc(F)ccc3Cc3ccccc32)CC1 [fluperlapine]
reduction of toxic side effects of MK-801 and PCP ([7]; tests on rats): reduce the toxic side effects

N=C(N)N/N=C/c1c(Cl)cccc1Cl [guanabenz]
neurotoxic effects of NMDA antagonists in animals [7]: suppressed or prevented
psychotomimetic effects of NMDA antagonists in humans [8]: suppressed or prevented

O=C(CCCN1CCC(O)(c2ccc(Cl)cc2)CC1)c1ccc(F)cc1 [haloperidol]
prevention of NMDA antagonist-induced vacuole formation ([5]; test animals, given at the same time as the NMDA antagonist, clinically relevant dosages): could not prevent
safening potency compared with sigma-selective drugs ([7]; required substantially higher dosages): not as potent or effective

Nc1nnc(-c2cccc(Cl)c2Cl)c(N)n1 [lamotrigine]
neurotoxic effects of NMDA antagonists in animals [7]: suppressed or prevented
psychotomimetic effects of NMDA antagonists in humans [8]: suppressed or prevented

CC12CC3CC(C)(C1)CC(N)(C3)C2 [memantine]
protection against excitotoxic damage [10]: some level of protection against excitotoxic damage
further deterioration of cognitive function ([11]; Alzheimer patients): did not prevent further deterioration
global assessment of cognition and ability to manage daily activities ([11]; low dose, middle-stage Alzheimer patients): transient and slight improvements
improvement in depressive symptoms ([2]; 20 mg/day, 8 weeks, severe chronic depression (Zarate et al 2006a)): no signs of improvement

[N-]=[N+]=O [nitrous oxide]
time after which irreversible changes inside animal brains begin to manifest [12]: about 8 hours

c1ccc(C2(N3CCCCC3)CCCCC2)cc1 [phencyclidine]
vacuole-forming ED100 dosage [3]: 4.0 mg/kg
potency relative to MK-801 (from ED100 numbers) [3]: about 1/10

OC(CCN1CCCC1)(c1ccccc1)C1CCCCC1 (stereo not shown) [procyclidine]
relief for neuropathic pain ([9]; animal models, reported in journals): offers relief for neuropathic pain

Nc1nc2ccc(OC(F)(F)F)cc2s1 [riluzole]
benefit in major depression ([2]; Zarate et al 2004): beneficial
